# Data published in ChEMBL document CHEMBL5505999, “Discovery of anti-inflammatory agents from 3, 4-dihydronaphthalene-1(2H)-one derivatives by inhibiting NLRP3 inflammasome activation” (Eur J Med Chem, 2024).
# Calls of active or inactive are those of the source. The rule behind the calls is not given here.
# Assays:
# RAW264.7 [1] = assay: Anti-inflammatory activity in mouse RAW264.7 cells assessed as inhibition of LPS-induced IL-18 production pretreated with compound for 2 hrs followed by LPS addition for 22 hrs and measured 30 mins after LPS addition by ELISA; assay type: functional, cell-based; details: dose 1.5-6 µM, time 24.5 hrs
# [2] = Cytotoxicity against mouse RAW264.7 cells assessed as survival rate at 2.5 uM incubated overnight by CCK-8 assay relative to control; assay type: toxicity, cell-based; details: read-out: Survival
# RAW264.7 [3] = assay: Anti-inflammatory activity in mouse RAW264.7 cells assessed as inhibition of LPS-induced TNF-alpha production at 2.5 uM pretreated with compound for 2 hrs followed by LPS addition and measured after 22 hrs by ELISA relative to control; assay type: functional; details: time 24 hrs
# RAW264.7 [4] = assay: Anti-inflammatory activity in mouse RAW264.7 cells assessed as inhibition of LPS-induced IL-6 production at 2.5 uM pretreated with compound for 2 hrs followed by LPS addition and measured after 22 hrs by ELISA relative to control; assay type: functional; details: time 24 hrs
# RAW264.7 [5] = assay: Anti-inflammatory activity in mouse RAW264.7 cells assessed as inhibition of LPS-induced TNF-alpha production pretreated with compound for 2 hrs followed by LPS addition and measured after 22 hrs by ELISA; assay type: functional, cell-based; details: dose 1.5-6 µM, time 24.0 hrs
# RAW264.7 [6] = assay: Anti-inflammatory activity in mouse RAW264.7 cells assessed as inhibition of LPS-induced IL-6 production pretreated with compound for 2 hrs followed by LPS addition and measured after 22 hrs by ELISA; assay type: functional, cell-based; details: dose 1.5-6 µM, time 24.0 hrs
# RAW264.7 [7] = assay: Anti-inflammatory activity in mouse RAW264.7 cells assessed as inhibition of LPS-induced IL-1beta production pretreated with compound for 2 hrs followed by LPS addition for 22 hrs and measured 30 mins after LPS addition by ELISA; assay type: functional, cell-based; details: dose 1.5-6 µM, time 24.5 hrs
# [8] = target: NACHT, LRR and PYD domains-containing protein 3 (Mus musculus) (UniProt Q8R4B8); assay: Inhibition of NLRP3 inflammasome activation in LPS-induced mouse RAW264.7 cells assessed as reduction in ROS production by measuring intracellular ROS level at 1.5 uM incubated for 24 hrs by DCFH-DA staining based flow cytometric analysis (reference value: 42.0%); assay type: cell-based; parameters: scale not given: the % may be the effect or the level left
# NACHT, LRR and PYD domains-containing protein 3 (Mus musculus), sequence (Q8R4B8 whole entry, the tested form may be a part): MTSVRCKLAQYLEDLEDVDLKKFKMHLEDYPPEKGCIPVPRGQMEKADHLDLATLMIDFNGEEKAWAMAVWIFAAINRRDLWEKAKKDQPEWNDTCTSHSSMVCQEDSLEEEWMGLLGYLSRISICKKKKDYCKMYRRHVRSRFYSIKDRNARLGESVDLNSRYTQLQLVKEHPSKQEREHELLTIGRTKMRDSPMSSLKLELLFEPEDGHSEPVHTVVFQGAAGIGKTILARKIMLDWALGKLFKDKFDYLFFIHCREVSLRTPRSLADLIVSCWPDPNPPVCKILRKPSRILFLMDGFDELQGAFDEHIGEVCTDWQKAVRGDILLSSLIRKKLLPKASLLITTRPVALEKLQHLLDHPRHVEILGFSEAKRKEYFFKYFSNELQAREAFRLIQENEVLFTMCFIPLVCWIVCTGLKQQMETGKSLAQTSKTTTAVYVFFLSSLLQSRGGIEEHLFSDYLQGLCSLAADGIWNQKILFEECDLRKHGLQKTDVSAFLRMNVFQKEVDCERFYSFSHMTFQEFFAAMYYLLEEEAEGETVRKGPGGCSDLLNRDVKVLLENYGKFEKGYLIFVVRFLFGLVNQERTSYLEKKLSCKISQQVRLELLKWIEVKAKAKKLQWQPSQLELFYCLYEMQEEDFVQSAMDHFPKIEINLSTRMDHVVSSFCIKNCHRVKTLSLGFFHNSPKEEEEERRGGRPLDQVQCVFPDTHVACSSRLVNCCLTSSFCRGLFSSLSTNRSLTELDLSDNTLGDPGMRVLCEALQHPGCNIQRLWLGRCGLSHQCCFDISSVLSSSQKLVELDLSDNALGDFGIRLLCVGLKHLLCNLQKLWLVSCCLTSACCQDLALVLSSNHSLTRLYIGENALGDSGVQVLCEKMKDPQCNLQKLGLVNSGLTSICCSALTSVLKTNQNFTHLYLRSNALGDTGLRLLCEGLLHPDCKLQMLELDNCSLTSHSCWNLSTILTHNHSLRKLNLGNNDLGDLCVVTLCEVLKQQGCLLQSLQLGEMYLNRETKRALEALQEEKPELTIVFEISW
# [9] = target: NACHT, LRR and PYD domains-containing protein 3 (Mus musculus) (UniProt Q8R4B8); assay: Inhibition of NLRP3 inflammasome activation in LPS-induced mouse RAW264.7 cells assessed as reduction in ROS production by measuring intracellular ROS level at 3.0 uM incubated for 24 hrs by DCFH-DA staining based flow cytometric analysis (reference value: 42.0%); assay type: cell-based; parameters: scale not given: the % may be the effect or the level left
# [10] = target: NACHT, LRR and PYD domains-containing protein 3 (Mus musculus) (UniProt Q8R4B8); assay: Inhibition of NLRP3 inflammasome activation in LPS-induced mouse RAW264.7 cells assessed as reduction in ROS production by measuring intracellular ROS level at 6.0 uM incubated for 24 hrs by DCFH-DA staining based flow cytometric analysis (reference value: 42.0%); assay type: cell-based; parameters: scale not given: the % may be the effect or the level left
# [11] = target: NACHT, LRR and PYD domains-containing protein 3 (Mus musculus) (UniProt Q8R4B8); assay: Inhibition of NLRP3 inflammasome activation in LPS-induced mouse RAW264.7 cells assessed as reduction in NO production incubated for 24 hrs by Griess reagent based assay; assay type: cell-based; details: dose 1.5-6 µM
# [12] = Induction of apoptosis in mouse RAW264.7 cells assessed as viable cells at 1.5 uM by Annexin V-FITC/PI staining based flow cytometric analysis (reference value: 96.4%); assay type: toxicity, cell-based; details: read-out: Activity
# RAW264.7 [13] = assay: Induction of apoptosis in mouse RAW264.7 cells assessed as apoptotic cells at 1.5 uM by Annexin V-FITC/PI staining based flow cytometric analysis (reference value: 1.9%); assay type: toxicity, cell-based; details: raw264.7, 1.5 µM
# [14] = Induction of apoptosis in mouse RAW264.7 cells assessed as viable cells at 3.0 uM by Annexin V-FITC/PI staining based flow cytometric analysis (reference value: 96.4%); assay type: toxicity, cell-based; details: read-out: Activity
# RAW264.7 [15] = assay: Induction of apoptosis in mouse RAW264.7 cells assessed as apoptotic cells at 3.0 uM by Annexin V-FITC/PI staining based flow cytometric analysis (reference value: 1.9%); assay type: toxicity, cell-based; details: raw264.7, 3 µM
# [16] = Induction of apoptosis in mouse RAW264.7 cells assessed as viable cells at 6.0 uM by Annexin V-FITC/PI staining based flow cytometric analysis (reference value: 96.4%); assay type: toxicity, cell-based; details: read-out: Activity
# RAW264.7 [17] = assay: Induction of apoptosis in mouse RAW264.7 cells assessed as apoptotic cells at 6.0 uM by Annexin V-FITC/PI staining based flow cytometric analysis (reference value: 1.9%); assay type: toxicity, cell-based; details: raw264.7, 6 µM
# [18] = target: Transcription factor p65 (Mus musculus) (UniProt Q04207); assay: Inhibition of NF-kappaB p65 nuclear translocation in LPS-induced mouse RAW264.7 cells assessed as increase in p65 subunits in cytoplasm at 6.0 uM preincubated with compound for 2 hrs followed by LPS addition and measured after 2 hrs by DAPI staining based Zeiss laser confocal microscopic analysis; assay type: cell-based; details: time 4.0 hrs
# Transcription factor p65 (Mus musculus), sequence (Q04207 whole entry): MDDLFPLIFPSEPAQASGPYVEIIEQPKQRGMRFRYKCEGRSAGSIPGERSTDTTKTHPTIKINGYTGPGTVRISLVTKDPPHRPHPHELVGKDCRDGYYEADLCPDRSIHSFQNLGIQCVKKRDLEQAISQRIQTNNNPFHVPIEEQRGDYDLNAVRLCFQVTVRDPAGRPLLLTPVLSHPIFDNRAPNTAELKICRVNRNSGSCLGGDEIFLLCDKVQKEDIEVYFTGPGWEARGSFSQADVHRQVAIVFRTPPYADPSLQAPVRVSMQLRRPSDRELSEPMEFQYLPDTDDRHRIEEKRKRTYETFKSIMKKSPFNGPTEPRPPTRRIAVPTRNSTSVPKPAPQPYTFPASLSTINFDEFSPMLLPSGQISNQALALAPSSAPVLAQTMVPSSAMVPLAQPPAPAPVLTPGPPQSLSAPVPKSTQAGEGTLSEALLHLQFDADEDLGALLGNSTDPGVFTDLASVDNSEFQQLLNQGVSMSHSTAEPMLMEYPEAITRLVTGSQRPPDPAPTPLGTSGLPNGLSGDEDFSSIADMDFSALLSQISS
# RAW264.7 [19] = assay: Inhibition of NF-kappaB signaling pathway in mouse RAW264.7 cells assessed as reduction in p65 phosphorylation preincubated with compound for 2 hrs followed by LPS addition and measured after 22 hrs by Western blot analysis; assay type: cell-based; details: dose 1.5-6 µM, time 24.0 hrs
# RAW264.7 [20] = assay: Inhibition of NF-kappaB signaling pathway in mouse RAW264.7 cells assessed as reduction in IkappaBalpha phosphorylation preincubated with compound for 2 hrs followed by LPS addition and measured after 22 hrs by Western blot analysis; assay type: cell-based; details: dose 1.5-6 µM, time 24.0 hrs
# [21] = target: NACHT, LRR and PYD domains-containing protein 3 (Mus musculus) (UniProt Q8R4B8); assay: Inhibition of NLRP3 inflammasome activation in mouse RAW264.7 cells assessed as reduction in NLRP3 expression at 1.5 to 6.0 uM preincubated with compound for 2 hrs followed by LPS addition and measured after 30 mins by Western blot analysis; assay type: cell-based; details: dose 1.5-6 µM, time 2.5 hrs
# [22] = target: NACHT, LRR and PYD domains-containing protein 3 (Mus musculus) (UniProt Q8R4B8); assay: Inhibition of NLRP3 inflammasome activation in mouse RAW264.7 cells assessed as reduction in ASC expression at 1.5 to 6.0 uM preincubated with compound for 2 hrs followed by LPS addition and measured after 30 mins by Western blot analysis; assay type: cell-based; details: dose 1.5-6 µM, time 2.5 hrs
structure (smiles),measurement,setting,value
CN1CCN(c2ccc(/C=C3\CCc4ccc(Br)cc4C3=O)nc2)CC1,Activity,RAW264.7 [1],Dose-Dependent Effect
same,viability at 2.5 µM,[2],108%
same,inhibition at 2.5 µM,RAW264.7 [3],81.4%
same,inhibition at 2.5 µM,RAW264.7 [4],69.2%
same,Activity,RAW264.7 [5],Dose-Dependent Effect
same,Activity,RAW264.7 [6],Dose-Dependent Effect
same,Activity,RAW264.7 [7],Dose-Dependent Effect
same,Activity,[8],36.4%
same,Activity,[9],31.8%
same,Activity,[10],19.9%
same,inhibition,[11],Dose-Dependent Effect
same,viability at 1.5 µM,[12],94.4%
same,Activity,RAW264.7 [13],3.8%
same,viability at 3 µM,[14],92.8%
same,Activity,RAW264.7 [15],5.6%
same,viability at 6 µM,[16],91.6%
same,Activity,RAW264.7 [17],6.8%
same,inhibition,[18],Active
same,inhibition,RAW264.7 [19],Dose-Dependent Effect
same,inhibition,RAW264.7 [20],Dose-Dependent Effect
same,inhibition,[21],Active
same,inhibition,[22],Active
